Test results: ChEMBL document CHEMBL1201862, “PubChem BioAssay data set” (2004)
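Cells were grown in 96-well plates and exposed to each compound for 48 hours at five concentrations; endpoints were interpolated linearly between bracketing concentrations, or set to the highest concentration if not reached. Here, GI50 denotes the concentration required for 50% inhibition of growth.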 Activity calls are given as the source filed them. Cut-off read from the data, not from the text of the source: active = GI50 up to about 1.1 µM and inactive = higher.

Assays:
Assay in all cases: growth of human tumour cells (NCI), 48 h
SK-MEL-28 = test system: SK-MEL-28
SNB-78 = test system: SNB-78
SNB-19 = test system: SNB-19
COLO 205 = test system: COLO 205
SK-OV-3 = test system: SK-OV-3
UO-31 = test system: UO-31
UACC-62 = test system: UACC-62
NCI-H226 = test system: NCI-H226
OVCAR-5 = test system: OVCAR-5
OVCAR-8 = test system: OVCAR-8
HCT-116 = test system: HCT-116
MOLT-4 = test system: MOLT-4
KM-20L2 = test system: KM-20L2
HOP-18 = test system: HOP-18
OVCAR-3 = test system: OVCAR-3
EKVX = test system: EKVX
NCI-H460 = test system: NCI-H460
IGROV-1 = test system: IGROV-1

Measured: GI50

COc1ccc(OC)c(-c2cc(O)c3cc4c(cc3n2)OCO4)c1
inactive: SK-MEL-28 5.87 µM | SNB-78 6.98 µM | SNB-19 18.5 µM | COLO 205 2.65 µM | SK-OV-3 3.49 µM | UO-31 19.8 µM | UACC-62 3.58 µM | NCI-H226 7.38 µM | OVCAR-5 8.53 µM | OVCAR-8 9.59 µM | HCT-116 4.14 µM | MOLT-4 6.34 µM | KM-20L2 4.14 µM | HOP-18 > 96.2 µM | OVCAR-3 3.93 µM | EKVX 37.4 µM | NCI-H460 3.41 µM | IGROV-1 10.5 µM

O=C(c1ccccc1)N1C2CCC1C(C(F)(F)F)=C2C(F)(F)F
inactive: SNB-78 > 100 µM | SNB-19 > 100 µM | COLO 205 > 100 µM | SK-OV-3 > 100 µM | UO-31 > 100 µM | UACC-62 > 100 µM | NCI-H226 > 100 µM | OVCAR-5 > 100 µM | OVCAR-8 > 100 µM | HCT-116 > 100 µM | MOLT-4 > 100 µM | KM-20L2 > 100 µM | HOP-18 > 100 µM | OVCAR-3 > 100 µM | EKVX > 100 µM | NCI-H460 > 100 µM | IGROV-1 > 100 µM

COc1cc(C2=NN(C)C(c3ccc([N+](=O)[O-])o3)C2)cc(OC)c1OC (stereo unspecified)
inactive: SK-MEL-28 79.8 µM | SNB-78 > 100 µM | SNB-19 > 100 µM | COLO 205 36.9 µM | SK-OV-3 > 100 µM | UO-31 72.1 µM | UACC-62 83.2 µM | NCI-H226 > 100 µM | OVCAR-5 > 100 µM | OVCAR-8 > 100 µM | HCT-116 48.8 µM | MOLT-4 24 µM | KM-20L2 > 100 µM | HOP-18 > 100 µM | EKVX > 100 µM | NCI-H460 41.9 µM | IGROV-1 > 100 µM

CC1=C(C(=O)Nc2ccc(C)cc2)C(c2cccc([N+](=O)[O-])c2)C(C(=O)Nc2ccc(C)cc2)=C(C)N1
inactive: SK-MEL-28 28.8 µM | SNB-78 27.4 µM | SNB-19 28.1 µM | COLO 205 14.1 µM | SK-OV-3 55.2 µM | UO-31 22 µM | UACC-62 13.3 µM | NCI-H226 69.5 µM | OVCAR-5 53.2 µM | OVCAR-8 40 µM | HCT-116 35.6 µM | MOLT-4 5.55 µM | KM-20L2 19.4 µM | HOP-18 14.1 µM | OVCAR-3 20 µM | EKVX 17.1 µM | NCI-H460 19.7 µM | IGROV-1 20.9 µM

O=C(O)/C(Cl)=C(\Cl)C(=O)Nc1ccccc1
inactive: SK-MEL-28 > 100 µM | SNB-78 > 100 µM | SNB-19 > 100 µM | COLO 205 > 100 µM | SK-OV-3 > 100 µM | UO-31 > 100 µM | UACC-62 > 100 µM | NCI-H226 > 100 µM | OVCAR-5 > 100 µM | HCT-116 > 100 µM | MOLT-4 > 100 µM | KM-20L2 > 100 µM | HOP-18 > 100 µM | OVCAR-3 > 100 µM | EKVX > 100 µM | NCI-H460 > 100 µM | IGROV-1 > 100 µM

CCOC(=O)/C(C#N)=C/c1[nH]c(C)c(C)c1C
inactive: SNB-78 > 100 µM | SNB-19 > 100 µM | COLO 205 > 100 µM | SK-OV-3 > 100 µM | UO-31 > 100 µM | UACC-62 > 100 µM | NCI-H226 > 100 µM | OVCAR-5 > 100 µM | OVCAR-8 > 100 µM | HCT-116 > 100 µM | MOLT-4 > 100 µM | KM-20L2 > 100 µM | HOP-18 > 100 µM | OVCAR-3 > 100 µM | EKVX > 100 µM | NCI-H460 > 100 µM | IGROV-1 > 100 µM

COc1ccc(NC(=O)CC(=O)NN2C(=O)/C(=C/c3ccc(N(CCC#N)CCC#N)cc3C)N=C2/C=C\c2ccccc2)cc1
inactive: SK-MEL-28 > 100 µM | SNB-78 > 100 µM | SNB-19 > 100 µM | COLO 205 > 100 µM | SK-OV-3 > 100 µM | UO-31 > 100 µM | UACC-62 > 100 µM | NCI-H226 > 100 µM | OVCAR-5 > 100 µM | OVCAR-8 > 100 µM | HCT-116 > 100 µM | MOLT-4 > 100 µM | KM-20L2 > 100 µM | HOP-18 18.5 µM | OVCAR-3 > 100 µM | NCI-H460 > 100 µM | IGROV-1 > 100 µM

Cc1cccc(C)c1N1C(=O)C(=O)C(c2nc3ccccc3s2)/C(=N/c2cccc3c(=O)[nH][nH]c(=O)c23)C1=O (stereo unspecified)
inactive: SK-MEL-28 > 100 µM | SNB-78 > 100 µM | SNB-19 > 100 µM | COLO 205 41.5 µM | SK-OV-3 > 100 µM | UO-31 > 100 µM | UACC-62 > 100 µM | NCI-H226 > 100 µM | OVCAR-5 > 100 µM | OVCAR-8 > 100 µM | HCT-116 > 100 µM | MOLT-4 66.5 µM | KM-20L2 > 100 µM | HOP-18 > 100 µM | OVCAR-3 > 100 µM | EKVX > 100 µM | NCI-H460 > 100 µM | IGROV-1 > 100 µM

CCOCc1cc(=O)c2cc3c(cc2o1)OC(C)(C)CC3
inactive: SNB-78 > 100 µM | SNB-19 > 100 µM | COLO 205 > 100 µM | SK-OV-3 > 100 µM | UO-31 92.9 µM | UACC-62 > 100 µM | NCI-H226 > 100 µM | OVCAR-5 > 100 µM | OVCAR-8 > 100 µM | HCT-116 > 100 µM | MOLT-4 55.5 µM | KM-20L2 > 100 µM | HOP-18 > 100 µM | OVCAR-3 > 100 µM | EKVX > 100 µM | NCI-H460 > 100 µM | IGROV-1 > 100 µM

CS(=O)(=O)OCCn1cnc2nc(NC(=O)c3ccccc3)[nH]c(=O)c21
inactive: SK-MEL-28 > 100 µM | SNB-78 > 100 µM | SNB-19 > 100 µM | COLO 205 > 100 µM | SK-OV-3 > 100 µM | UO-31 > 100 µM | UACC-62 > 100 µM | NCI-H226 > 100 µM | OVCAR-5 > 100 µM | OVCAR-8 > 100 µM | HCT-116 > 100 µM | KM-20L2 > 100 µM | HOP-18 > 100 µM | OVCAR-3 > 100 µM | EKVX > 100 µM | NCI-H460 > 100 µM | IGROV-1 > 100 µM

Cc1ccc(Nc2nc(C)c(C(/C=C/c3ccc(/C=C/C(=N/NC(=O)C[n+]4ccccc4)c4sc(Nc5ccc(C)cc5[N+](=O)[O-])nc4C)cc3)=N\NC(=O)C[n+]3ccccc3)s2)c([N+](=O)[O-])c1
inactive: SK-MEL-28 > 100 µM | SNB-78 91.2 µM | SNB-19 > 100 µM | COLO 205 > 100 µM | SK-OV-3 > 100 µM | UO-31 46.5 µM | UACC-62 20.6 µM | NCI-H226 14.6 µM | OVCAR-5 50.8 µM | OVCAR-8 > 100 µM | HCT-116 > 100 µM | MOLT-4 76.7 µM | KM-20L2 > 100 µM | HOP-18 7.96 µM | OVCAR-3 > 100 µM | EKVX 78.3 µM | NCI-H460 > 100 µM | IGROV-1 > 100 µM
